From ChEMBL document CHEMBL5104127, “Design and preparation of N-linked hydroxypyridine-based APJ agonists” (Bioorg Med Chem Lett, 2022)

What was measured:
Apelin receptor = target: T1, Apelin receptor (Homo sapiens, UniProt P35414); assay: Agonist activity at human APJ receptor expressed in HEK293 cells assessed as compound stimulated inhibition of forskolin stimulated cAMP production incubated for 30 mins and measured by fluorescence based assay; type: functional, cell-based
T1 sequence (P35414 whole entry): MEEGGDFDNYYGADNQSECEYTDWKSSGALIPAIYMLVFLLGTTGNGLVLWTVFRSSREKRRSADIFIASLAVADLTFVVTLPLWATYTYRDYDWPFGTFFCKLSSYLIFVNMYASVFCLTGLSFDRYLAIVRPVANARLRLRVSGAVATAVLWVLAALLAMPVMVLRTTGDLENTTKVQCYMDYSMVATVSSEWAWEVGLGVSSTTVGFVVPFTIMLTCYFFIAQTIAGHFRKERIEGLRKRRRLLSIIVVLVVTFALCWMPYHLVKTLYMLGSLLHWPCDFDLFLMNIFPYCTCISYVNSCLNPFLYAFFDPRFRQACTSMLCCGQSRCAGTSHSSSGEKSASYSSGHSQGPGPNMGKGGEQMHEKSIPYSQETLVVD

[1] = Metabolic stability in rat liver microsomes incubated for 10 mins and assessed as compound remaining; type: ADME, Microsome; settings: read-out: Stability
[2] = Metabolic stability in human liver microsomes incubated for 10 mins and assessed as compound remaining; type: ADME, Microsome; settings: read-out: Stability
[3] = AUC in rat at 1 mg/kg, po; type: ADME, organism-based; parameters: dose 1 mg/kg, route po; settings: in vivo
[4] = Cmax in rat at 1 mg/kg, po; type: ADME, organism-based; parameters: dose 1 mg/kg, route po; settings: in vivo

SMILES | EC50 (Apelin receptor) [nM] | remaining at 10 min [1] [%] | remaining at 10 min [2] [%] | AUC [3] [µM·h] | Cmax [4] [µM]
CCCCc1nc(O)c(C(=O)N2CC[C@H](c3ccccc3)C2)c(O)c1N(CC)c1ccccc1 | 13 | 7 | 27 |  | 
CCCCc1nc(O)c(C(=O)N2CC[C@H](c3ccccc3)C2)c(O)c1N(c1ccccc1)C(C)C | 35 |  |  |  | 
CCCCc1nc(O)c(C(=O)N2CC[C@H](c3ccccc3)C2)c(O)c1N(C)c1ccccc1OC | > 75 |  |  |  | 
CCCCc1nc(O)c(C(=O)N2CC[C@@H](c3ccccc3)C2)c(O)c1N(CC)c1ccccc1 | 12 | 17 | 56 |  | 
CCN(c1ccccc1)c1c(CC2CC2)nc(O)c(C(=O)N2CCC(c3ncc(F)cc3F)C2)c1O (stereo unspecified) | 13 |  |  |  | 
CCCCc1nc(O)c(C(=O)N2CCC(c3ccc(Cl)cn3)C2)c(O)c1N(CC)c1ccccc1 (stereo unspecified) | 0.28 | 26 | 62 |  | 
CCCCc1nc(O)c(C(=O)N2CC[C@H](c3ccccc3)C2)c(O)c1N1CCc2ccccc21 | 21 |  |  |  | 
CCCCc1nc(O)c(C(=O)N2CCC(c3ncc(F)cc3F)C2)c(O)c1N(CC)c1ccccc1 (stereo unspecified) | 0.24 |  |  |  | 
CCCCc1nc(O)c(C(=O)N2CC[C@H](c3ccccc3)C2)c(O)c1N(C)c1ccccc1 | 38 |  |  |  | 
CCCCc1nc(O)c(C(=O)N2CCC(c3ncc(Cl)cc3F)C2)c(O)c1N(CC)c1ccccc1 (stereo unspecified) | 0.24 | 12 | 53 |  | 
CCN(c1ccccc1)c1c(-c2cccc(C)c2)nc(O)c(C(=O)N2CCC(c3ncc(F)cc3F)C2)c1O (stereo unspecified) | 0.1 | 7 | 57 |  | 
CCCCc1nc(O)c(C(=O)N2CC[C@H](c3ccccc3)C2)c(O)c1N1CCCc2ccccc21 | > 150 |  |  |  | 
CCCCc1nc(O)c(C(=O)N2CC[C@H](c3ccccc3)C2)c(O)c1N(C)c1cccc(OC)c1 | > 75 |  |  |  | 
CCCCc1nc(O)c(C(=O)N2CCN(Cc3cccc(Cl)c3Cl)CC2)c(O)c1N(CC)c1ccccc1 | 16 |  |  |  | 
CCCCc1nc(O)c(C(=O)N2CC[C@H](c3ccccc3)C2)c(O)c1N(C)c1ccc(OC)cc1 | 62 |  |  |  | 
CCCCc1nc(O)c(C(=O)N2CCC(c3ccccc3F)C2)c(O)c1N(CC)c1ccccc1 (stereo unspecified) | 8.4 |  |  |  | 
CCN(c1ccccc1)c1c(-c2ccn(C)n2)nc(O)c(C(=O)N2CCC(c3ncc(F)cc3F)C2)c1O (stereo unspecified) | 0.3 | 82 | 87 | 4.8 | 5.2
